Measured values as given in patent US20240228536A1, “PEPTIDES FOR USE IN SKIN AND HAIR PIGMENTATION” (Follicum AB, priority 2020, published 2024).

Tests used:
Assay type in all cases: cell-based, human
skin equivalents = experiment: Total melanin assay
Description: The skin equivalents used in this study was from the same donors as in Example 2. The determination of the total melanin content of the skin equivalent was determined using a total melanin assay.
The total melanin content of the SE was calculated by dissolving the SE in Soluene and reading the absorbance against a standard curve. The SEs were removed from culture on day 20 and washed with PBS. They were then transferred to a glass centrifuge tube and 500 μl Soluene added. The tubes were then covered with […]®, gently vortexed and placed on the Thermomixer at 50° C. for 1 hour. The tubes were then gently vortexed and 150 μl of the sample and synthetic melanin standards pipetted in triplicate into a glass 96 well plate. The absorbance was then measured at 490 nm on a Spectrophotometer. Results are presented in μg/ml against a standard curve. The change of melanin content is expressed as a percentage change versus vehicle control samples. An ANOVA (with Dunnett's post-test) was used for the statistical analysis.
Three experiments were conducted, and the same donors were used as in Example 2. The sample sizes were as follows: experiment 1 n=2, experiment 2 n=4 and experiment 3 n=7. Peptides 1 (SEQ ID NO: 2), 3 (SEQ ID NO: 3) and 4 (SEQ ID NO: 4) were tested.

skin equivalents (SEs) = experiment: H&E and Warthin Starry staining of skin equivalents; settings: day 20
Text: Two skin equivalents (SEs) were used from one donor.
The analysis was achieved using the Warthin Starry assay using our recently published method (Joly-Tonetti et al 2016) and hematoxylin&eosin (H&E) staining.
The SEs were stained with Warthin Starry stain to visualise and quantify the melanin in sections. The SEs were removed from culture on day 20 and washed in PBS. They were then flash frozen in liquid nitrogen and mounted in OCT for sectioning. 10 μm sections were cut using a cryostat, the sections collected on slides and fixed in Acetone for 10 mins. The OCT was removed from the section by washing in acidulated water for 20 mins. The slides were then incubated in 1% silver nitrate solution for 1 hour at 43° C. […] The slides were stained for 2 mins then the staining was stopped by running the slides under hot tap water. Slides were then mounted using Histomount. Brightfield images were captured using a Nikon Eclipse microscope. Image analysis of the melanin density in sections was performed using Image J and densitometric thresholding. Results are presented in pixel intensity units. For the hematoxylin&eosin (H&E) staining, the SEs were flash frozen, sectioned and fixed as above. The slides were then washed in dH2O to remove the OCT for 20 mins. Haematoxylin was filtered using filter paper into a Coplin jar. Further Coplin jars were also prepared containing the following: Tap Water, Scott's Tap Water, 0.25% Eosin, 50% Ethanol, 70% Ethanol, 90% Ethanol, Ethanol and Histoclear. The slides were then placed into Haematoxylin for 2 mins, and then placed into tap water for 30 secs, Scott's Tap Water for 1 min & Eosin for 2 mins. The slides were then dehydrated through the Ethanol (1 min each) then placed into Histoclear for 2 mins and mounted using Histomount. Brightfield images were captured using a Nikon Eclipse microscope.

[1] = test system: Melanoderms Mel-300-A (donor); experiment: Skin equivalent culture, peptides in formulation, photographic assessment of pigmentation; settings: 7 days; for pigmentation of SEs (visual assessment), response by concentration: 0.4%, 1% and 2% in formulation B, relative to vehicle controls; for pigmentation of SEs (visual assessment): in formulation B, 25 μl topical, vs formulation B only and peptide dissolved in water (10 mg/ml)
Description: Pigmented skin equivalents (SEs), Melanoderms Mel-300-A (donor) were obtained from Mattek Ltd together with the associated media […]-113 and hanging well plates. The skin equivalent surface area was 63.6 mm^2. Other equipment used included SMZ1000 Stereo 10 Microscope (Nikon); UC30 Microscope Camera (Olympus); Sterile Phosphate-Buffered Saline (PBS, Thermofisher, UK); 12-well Tissue Culture Plates (Sarstedt). All incubations were carried out in a humidified incubator maintained at 37° C. with 5% CO2. Pure peptide (>99%) was obtained from Biomatik, USA as acetate salt. The Melanoderms were prepared by carefully removing the agarose with sterile forceps and placing in 5 ml pre-warmed culture medium in hanging plates and incubated overnight. […] The tissue surface was photographed using an Olympus camera system attached to an inverted microscope to record initial pigmentation levels. SEs were transferred back to hanging well plates containing 5 ml fresh media. Three SEs were removed to provide baseline day 0 controls for analysis using WS staining and qPCR analysis. SEs (n=3 per treatment) were topically treated for 7 days with 25 μl of the various peptide concentrations in formulations as prepared in Example 12 in parallel with relevant controls. […] Each formulation was applied to the surface of SEs using a positive displacement pipette and spread evenly using a sterile microbiological loop. SEs were maintained at 37° C., 5% CO2 in a humidified incubator with media refreshed every other day until the end of treatment. On day 7 SEs were removed from culture and formulation carefully removed using a sterile microbiological loop and the surface rinsed in PBS then blotted dry with a sterile cotton bud. […] The pigmentation of the Melanoderms was macroscopically assessed by capturing high-resolution images using the Olympus microscope camera.

[2] = experiments 1 and 3, 10 mg/ml topical, day 20

Substance | total melanin content of skin equivalents vs vehicle control (skin equivalents; experiment 2, 10 mg/ml topical, day 20, n=4) | total melanin content of skin equivalents vs vehicle control (skin equivalents; [2]) | melanin content and distribution in SE sections (Warthin Starry) (skin equivalents (SEs); one of the donors (FIG. 3A)) | melanin content and distribution in SE sections (Warthin Starry) (skin equivalents (SEs); second donor (FIG. 3B-D)) | pigmentation of SEs (visual assessment), response by concentration [1] | pigmentation of SEs (visual assessment) [1]
Asn-Ala-Ala-Met (NAAM; (1)..(4) Peptide 4) | significant increase in melanin content | increase in melanin content | increased the melanin content in the SEs across all layers | visibly increased melanin content | approximately equal increase in pigmentation relative to vehicle controls | more pigmented than the vehicle control
Asn-Ala-His-Met (NAHM; (1)..(4) Peptide 1) |  | increase in melanin content |  | visibly increased melanin content | highest response at the higher 1% and 2% concentrations | more pigmented than the vehicle control
